Format in all cases: cell-based
One test addresses human GcgR (Homo sapiens, UniProt P47871). Put plainly: Functional cAMP activity in the presence of 1% HSA. Particulars: read-out: cAMP Rel EC50, hGcgR.
Test [1] concerns the target T1, hGLP-1R (Homo sapiens, UniProt P43220). The experiment in a line: Functional cAMP activation in the presence of 0.1% casein (no HSA). Particulars: read-out: Relative cAMP EC50, hGLP-1R.
Test [2] concerns the target T2, hGIPR (Homo sapiens, UniProt P48546).
T2 sequence (P48546 22-466): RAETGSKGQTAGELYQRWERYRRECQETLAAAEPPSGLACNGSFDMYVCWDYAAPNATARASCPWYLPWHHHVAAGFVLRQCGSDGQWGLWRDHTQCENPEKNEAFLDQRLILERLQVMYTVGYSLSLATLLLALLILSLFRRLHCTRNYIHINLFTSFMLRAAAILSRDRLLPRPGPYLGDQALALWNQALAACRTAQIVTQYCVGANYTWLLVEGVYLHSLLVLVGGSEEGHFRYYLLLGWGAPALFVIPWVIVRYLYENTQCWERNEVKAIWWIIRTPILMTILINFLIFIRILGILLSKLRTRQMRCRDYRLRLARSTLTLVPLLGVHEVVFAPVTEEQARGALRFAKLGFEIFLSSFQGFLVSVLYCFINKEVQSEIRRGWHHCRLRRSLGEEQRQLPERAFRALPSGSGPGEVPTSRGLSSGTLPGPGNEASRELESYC
Put plainly: Functional cAMP activity in the presence of 1% HSA. Particulars: read-out: cAMP Rel EC50, hGIPR.

The target in the next test is hGcgR (Homo sapiens, UniProt P47871). Put plainly: Functional cAMP activation in the presence of 0.1% casein (no HSA). Particulars: read-out: Relative cAMP EC50, hGcgR.
The target of test [3] is T2, hGIPR. The test is described as above. Particulars: read-out: Relative cAMP EC50, hGIPR.
In test [4] the target is T1, hGLP-1R. Put plainly: Functional cAMP activity in the presence of 1% HSA. Particulars: read-out: cAMP Rel EC50, hGLP-1R.
[5] abbreviates: 0.1% casein, no HSA, geometric mean.

Like-named read-outs stand apart in the source and are kept apart here. Starred links: 1 amine or outer side, 2 acyl side, 3 side chain; linkers in the order of their positions; H or OH if unused. Non-standard residues stand in square brackets, D forms with d. Residues, ends and D or L forms follow the SMILES beside them. Groups on a side chain read outwards from the residue. No end group written: not given here. *: point of attachment. C18 diacid = O=C(O)CCCCCCCCCCCCCCCCC(=O)*; αMePhe(2-F) = C[C@](N)(Cc1ccccc1F)C(=O)O; γGlu = O=C(O)[C@H](CCC(=O)[*:2])N[*:1]; αMe4Pal = C[C@](N)(Cc1ccncc1)C(=O)O; αMeY = C[C@](N)(Cc1ccc(O)cc1)C(=O)O; αMeF = C[C@](N)(Cc1ccccc1)C(=O)O; 4Pal = N[C@@H](Cc1ccncc1)C(=O)O; αMeL = CC(C)C[C@](C)(N)C(=O)O; αMeS = C[C@](N)(CO)C(=O)O; Orn = NCCC[C@H](N)C(=O)O; AEEA = NCCOCCOCC(=O)O; Aib = CC(C)(N)C(=O)O
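Throughout, for Relative cAMP EC50, hGIPR: intracellular cAMP rise after 30 min at 37 °C read by HTRF against a standard curve, scaled between buffer alone (0%) and top control ligand concentration (100%), four-parameter fit.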
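Throughout, for Relative cAMP EC50, hGLP-1R: intracellular cAMP rise after 30 min at 37 °C read by HTRF, normalized between buffer only (0%) and maximal control ligand (100%), four-parameter variable-slope fit.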
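Throughout, for Relative cAMP EC50, hGcgR: intracellular cAMP rise after 30 min at 37 °C, read by HTRF against a cAMP standard curve, scaled from buffer only (0%) to maximal control ligand response (100%).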

T1 sequence (P43220 24-463): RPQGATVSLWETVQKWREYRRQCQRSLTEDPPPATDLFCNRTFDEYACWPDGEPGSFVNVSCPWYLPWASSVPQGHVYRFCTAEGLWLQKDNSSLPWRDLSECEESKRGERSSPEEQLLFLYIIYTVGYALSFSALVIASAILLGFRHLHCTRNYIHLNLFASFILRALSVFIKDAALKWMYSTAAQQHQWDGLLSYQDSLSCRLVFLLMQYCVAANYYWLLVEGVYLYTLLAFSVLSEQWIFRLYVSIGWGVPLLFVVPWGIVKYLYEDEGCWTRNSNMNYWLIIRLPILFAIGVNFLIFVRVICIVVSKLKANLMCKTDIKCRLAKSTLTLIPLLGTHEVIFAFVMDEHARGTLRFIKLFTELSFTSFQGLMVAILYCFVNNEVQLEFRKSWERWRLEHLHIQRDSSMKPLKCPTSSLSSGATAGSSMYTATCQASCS
Sequence of hGcgR (P47871 26-477): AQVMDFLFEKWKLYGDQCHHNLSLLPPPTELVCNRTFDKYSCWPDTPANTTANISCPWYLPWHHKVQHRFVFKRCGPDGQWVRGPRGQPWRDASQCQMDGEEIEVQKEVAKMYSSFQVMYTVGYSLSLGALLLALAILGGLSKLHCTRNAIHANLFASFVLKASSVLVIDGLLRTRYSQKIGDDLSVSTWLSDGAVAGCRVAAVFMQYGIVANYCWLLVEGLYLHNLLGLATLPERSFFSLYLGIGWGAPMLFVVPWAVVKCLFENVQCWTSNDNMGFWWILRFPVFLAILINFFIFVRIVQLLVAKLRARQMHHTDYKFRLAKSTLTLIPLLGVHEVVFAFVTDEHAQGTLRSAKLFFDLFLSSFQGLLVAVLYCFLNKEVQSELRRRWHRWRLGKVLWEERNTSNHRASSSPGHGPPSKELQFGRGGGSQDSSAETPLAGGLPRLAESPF
Sequence of human GcgR (P47871 26-477): as above

As usually defined, the EC50 is the concentration giving half of the maximal effect. Take “H-Y[Aib]QGT[αMePhe(2-F)]TSD[4Pal][αMeS]I[αMeL]LD[Orn]K([γGlu-γGlu-C18 diacid])AQ[αMe4Pal]EFI[dE][αMeY]LIEGGPSSGAPPPEGGGEE-NH2 [Example 1220]”: the EC50 at human GcgR was 168 nM; at hGLP-1R [1] (setting [5]), 0.674 nM; at hGIPR [2], 0.609 nM; on hGcgR (setting [5]), 1.57 nM; at hGIPR [3] (setting [5]), 0.0099 nM; at hGLP-1R [4], 48.5 nM.
On to `CC[C@H](C)[C@H](NC(=O)[C@H](CC(C)C)NC(=O)[C@](C)(Cc1ccc(O)cc1)NC(=O)[C@@H](CCC(=O)O)NC(=O)[C@@H](NC(=O)[C@H](Cc1ccccc1)NC(=O)[C@H](CCC(=O)O)NC(=O)C(C)(C)NC(=O)[C@H](C)NC(=O)[C@H](C)NC(=O)[C@H](CCCCNC(=O)COCCOCCNC(=O)CC[C@H](NC(=O)CCCCCCCCCCCCCCCCC(=O)O)C(=O)O)NC(=O)[C@H](CCCN)NC(=O)[C@H](CC(=O)O)NC(=O)[C@H](CC(C)C)NC(=O)[C@](C)(CC(C)C)NC(=O)[C@@H](NC(=O)[C@](C)(CO)NC(=O)[C@H](Cc1ccncc1)NC(=O)[C@H](CC(=O)O)NC(=O)[C@H](CO)NC(=O)[C@@H](NC(=O)[C@](C)(Cc1ccccc1F)NC(=O)[C@@H](NC(=O)CNC(=O)[C@H](CCC(N)=O)NC(=O)C(C)(C)NC(=O)[C@@H](N)Cc1ccc(O)cc1)[C@@H](C)O)[C@@H](C)O)[C@@H](C)CC)[C@@H](C)CC)C(=O)N[C@@H](CCC(=O)O)C(=O)NCC(=O)NCC(=O)N1CCC[C@H]1C(=O)N[C@@H](CO)C(=O)N[C@@H](CO)C(=O)NCC(=O)N[C@@H](C)C(=O)N1CCC[C@H]1C(=O)N1CCC[C@H]1C(=O)N1CCC[C@H]1C(=O)N[C@@H](CO)C(=O)NCC(=O)N[C@@H](CO)C(=O)N[C@@H](CCC(=O)O)C(=O)N[C@@H](CCC(=O)O)C(N)=O` [Example 704], for which the EC50 on human GcgR came to 239 nM; at hGLP-1R [1], 0.287 nM; at hGIPR [2] it was 1.2 nM; on hGcgR, 1.85 nM; on hGIPR [3], 0.013 nM; on hGLP-1R [4], 33.9 nM.
Consider “Y[Aib]QGT[αMePhe(2-F)]TSD[4Pal]SI[αMeL]LD[Orn]K([AEEA-γGlu-C18 diacid])AQ[αMe4Pal]EFI[dE][αMeY]LIEGGPSSGEPPPSGS-NH2 [Example 644]”, for which the EC50 on human GcgR is 626 nM; at hGLP-1R [1], 0.309 nM; at hGIPR [2], 0.601 nM; on hGcgR it was 5.91 nM; on hGIPR [3], 0.00649 nM; at hGLP-1R [4], 34.3 nM.
As for `CC[C@H](C)[C@H](NC(=O)[C@H](Cc1ccccc1)NC(=O)[C@H](C)NC(=O)C(C)(C)NC(=O)[C@H](CCC(N)=O)NC(=O)[C@H](C)NC(=O)[C@H](CCCCNC(=O)COCCOCCNC(=O)CC[C@H](NC(=O)CCCCCCCCCCCCCCCCC(=O)O)C(=O)O)NC(=O)[C@H](CCCCN)NC(=O)[C@H](CC(=O)O)NC(=O)[C@H](CC(C)C)NC(=O)[C@](C)(CC(C)C)NC(=O)[C@@H](NC(=O)[C@H](CO)NC(=O)[C@H](Cc1ccc(O)cc1)NC(=O)[C@H](CC(=O)O)NC(=O)[C@H](CO)NC(=O)[C@@H](NC(=O)[C@](C)(Cc1ccccc1)NC(=O)[C@@H](NC(=O)CNC(=O)[C@H](CCC(N)=O)NC(=O)C(C)(C)NC(=O)[C@@H](N)Cc1ccc(O)cc1)[C@@H](C)O)[C@@H](C)O)[C@@H](C)CC)C(=O)N[C@@H](CCC(=O)O)C(=O)N[C@@H](Cc1ccc(O)cc1)C(=O)N[C@@H](CC(C)C)C(=O)N[C@@H](CCC(=O)O)C(=O)N[C@@H](CCC(=O)O)C(=O)NCC(=O)NCC(=O)N1CCC[C@H]1C(=O)N[C@@H](CO)C(=O)N[C@@H](CO)C(=O)NCC(=O)N[C@@H](C)C(=O)N1CCC[C@H]1C(=O)N1CCC[C@H]1C(=O)N1CCC[C@H]1C(=O)N[C@@H](CCC(=O)O)C(N)=O` [Example 396] (H-Y[Aib]QGT[αMeF]TSDYSI[αMeL]LDKK([AEEA-γGlu-C18 diacid])AQ[Aib]AFIEYLEEGGPSSGAPPPE-NH2), the EC50 is 468 nM on human GcgR; 0.293 nM at hGLP-1R [1]; 9.5 nM on hGIPR [2]; 4.99 nM at hGcgR; 0.024 nM at hGIPR [3]; 38.2 nM on hGLP-1R [4].

Source of the values: patent US20240270821A1, “GIP/GLP1/GCG TRI-RECEPTOR AGONISTS AND USES THEREOF” (priority 2023, published 2024).
